Source: ChEMBL document CHEMBL1147597, “Synthesis and biological evaluations of novel benzimidazoles as potential antibacterial agents” (Bioorg Med Chem Lett, 2004)
pIC50: −log10 of the molar value. ≈ marks a conversion by molar mass, not a printed value. One block for each molecule: values may come before it.

What was measured:
[1] = system: Staphylococcus aureus; experiment: Minimal inhibitory concentration against Staphylococcus aureus (Range is 3-6 uM); type: functional
[2] = system: Pseudomonas aeruginosa; experiment: Minimal inhibitory concentration against gram negative Pseudomonas aeruginosa 25416 strain (Range is 12-25 uM); type: functional
[3] = system: Enterococcus hirae; experiment: Minimal inhibitory concentration against gram positive Enterococcus hirae 29212 strain (Range is 1-3 uM); type: functional
[4] = system: Escherichia coli; experiment: Minimal inhibitory concentration against gram negative Escherichia coli 25922 strain (Range is 6-12 uM); type: functional; details: ATCC25922
[5] = system: Bacteria; experiment: Inhibitory activity against bacteria in the transcription/translation assay; type: functional, organism-based
[6] = system: Staphylococcus aureus; experiment: Minimal inhibitory concentration against gram positive Staphylococcus aureus 13709 strain (Range is 3-6 uM); type: functional
[7] = system: Escherichia coli; experiment: Minimal inhibitory concentration against Escherichia coli (Range is 6-12 uM); type: functional
[8] = system: Streptococcus pneumoniae; experiment: Minimal inhibitory concentration against gram positive Streptococcus pneumoniae 6303 strain (Range is 6-12 uM); type: functional
[9] = system: Klebsiella pneumoniae; experiment: Minimal inhibitory concentration against gram negative Klebsiella pneumoniae 13383 strain (Range is 6-12 uM); type: functional
[10] = system: Streptococcus pyogenes; experiment: Minimal inhibitory concentration against gram positive Streptococcus pyogenes 49399 strain (Range is 3-6 uM); type: functional
[11] = system: Streptococcus pyogenes; experiment: Minimal inhibitory concentration against gram positive Streptococcus pyogenes 49399 strain (Range is 25-50 uM); type: functional
[12] = system: Escherichia coli; experiment: Minimal inhibitory concentration against Escherichia coli (Range is 12-25 uM); type: functional
[13] = system: Escherichia coli; experiment: Minimal inhibitory concentration against gram negative Escherichia coli 25922 strain (Range is 12-26 uM); type: functional; details: ATCC25922
[14] = system: Enterococcus hirae; experiment: Minimal inhibitory concentration against gram positive Enterococcus hirae 29212 strain (Range is 0.75-1.5 uM); type: functional
[15] = system: Staphylococcus aureus; experiment: Minimal inhibitory concentration against Staphylococcus aureus (Range is 12-25 uM); type: functional
[16] = system: Pseudomonas aeruginosa; experiment: Minimal inhibitory concentration against gram negative Pseudomonas aeruginosa 25416 strain (Range is 6-12 uM); type: functional
[17] = system: Proteus vulgaris; experiment: Minimal inhibitory concentration against gram negative Proteus vulgaris 8427 strain (Range is 25-50 uM); type: functional
[18] = system: Klebsiella pneumoniae; experiment: Minimal inhibitory concentration against gram negative Klebsiella pneumoniae 13383 strain (Range is 25-50 uM); type: functional
[19] = system: Staphylococcus aureus; experiment: Minimal inhibitory concentration against gram positive Staphylococcus aureus 13709 strain (Range is 3-7 uM); type: functional
[20] = system: Pseudomonas aeruginosa; experiment: Minimal inhibitory concentration against gram negative Pseudomonas aeruginosa 25416 strain (Range is 25-50 uM); type: functional
[21] = system: Escherichia coli; experiment: Minimal inhibitory concentration against gram negative Escherichia coli 25922 strain (Range is 12-25 uM); type: functional; details: ATCC25922
[22] = system: Enterococcus hirae; experiment: Minimal inhibitory concentration against gram positive Enterococcus hirae 29212 strain (Range is 3-6 uM); type: functional
[23] = system: Streptococcus pneumoniae; experiment: Minimal inhibitory concentration against gram positive Streptococcus pneumoniae 6303 strain (Range is 12-25 uM); type: functional
[24] = system: Staphylococcus aureus; experiment: Minimal inhibitory concentration against gram positive Staphylococcus aureus 13709 strain (Range is 6-12 uM); type: functional
[25] = system: Streptococcus pyogenes; experiment: Minimal inhibitory concentration against gram positive Streptococcus pyogenes 49399 strain (Range is 6-12 uM); type: functional
[26] = system: Staphylococcus aureus; experiment: Minimal inhibitory concentration against Staphylococcus aureus (Range is 6-12 uM); type: functional
[27] = system: Enterococcus hirae; experiment: Minimal inhibitory concentration against gram positive Enterococcus hirae 29212 strain (Range is 25-50 uM); type: functional
[28] = system: Escherichia coli; experiment: Minimal inhibitory concentration against gram negative Escherichia coli 25922 strain; type: functional; details: ATCC25922
[29] = system: Pseudomonas aeruginosa; experiment: Minimal inhibitory concentration against gram negative Pseudomonas aeruginosa 25416 strain; type: functional
[30] = system: Klebsiella pneumoniae; experiment: Minimal inhibitory concentration against gram negative Klebsiella pneumoniae 13383 strain (Range is 50-100 uM); type: functional
[31] = system: Proteus vulgaris; experiment: Minimal inhibitory concentration against gram negative Proteus vulgaris 8427 strain; type: functional
[32] = system: Escherichia coli; experiment: Minimal inhibitory concentration against Escherichia coli; type: functional

- MIC [1]: 6 µM (≈ 3.85 µg/mL)
- MIC [2]: 25 µM (≈ 16.1 µg/mL)
- MIC [3]: 3 µM (≈ 1.93 µg/mL)
- MIC [4]: 12 µM (≈ 7.71 µg/mL)
- pIC50 [5]: < 4.00
- MIC [6]: 6 µM (≈ 3.85 µg/mL)
- MIC [7]: 12 µM (≈ 7.71 µg/mL)
- MIC [8]: 12 µM (≈ 7.71 µg/mL)
- MIC [9]: 12 µM (≈ 7.71 µg/mL)
- MIC [10]: 6 µM (≈ 3.85 µg/mL)
Compound: Clc1cc2nc(C3CCNCC3)n(Cc3ccc(Cn4c(C5CCNCC5)nc5cc(Cl)c(Cl)cc54)cc3)c2cc1Cl

- MIC [11]: 50 µM (≈ 30.4 µg/mL)
- MIC [12]: 25 µM (≈ 15.2 µg/mL)
- MIC [13]: 26 µM (≈ 15.8 µg/mL)
- MIC [14]: 1.5 µM (≈ 0.913 µg/mL)
- MIC [15]: 25 µM (≈ 15.2 µg/mL)
- pIC50 [5]: 4.46
- MIC [16]: 12 µM (≈ 7.3 µg/mL)
- MIC [8]: 12 µM (≈ 7.3 µg/mL)
- MIC [17]: 50 µM (≈ 30.4 µg/mL)
- MIC [18]: 50 µM (≈ 30.4 µg/mL)
- MIC [19]: 7 µM (≈ 4.26 µg/mL)
Compound: Clc1cc2nc(C3CCNCC3)n(CCCCCn3c(C4CCNCC4)nc4cc(Cl)c(Cl)cc43)c2cc1Cl

- MIC [20]: 50 µM (≈ 25.6 µg/mL)
- MIC [12]: 25 µM (≈ 12.8 µg/mL)
- MIC [21]: 25 µM (≈ 12.8 µg/mL)
- MIC [22]: 6 µM (≈ 3.07 µg/mL)
- MIC [23]: 25 µM (≈ 12.8 µg/mL)
- pIC50 [5]: < 4.00
- MIC [24]: 12 µM (≈ 6.14 µg/mL)
- MIC [25]: 12 µM (≈ 6.14 µg/mL)
- MIC [9]: 12 µM (≈ 6.14 µg/mL)
- MIC [17]: 50 µM (≈ 25.6 µg/mL)
- MIC [26]: 12 µM (≈ 6.14 µg/mL)
Compound: O=C(Cn1c(C2CCNCC2)nc2cc(Cl)c(Cl)cc21)NNC(=O)Nc1ccc2ccccc2c1

- MIC [27]: 50 µM (≈ 21.8 µg/mL)
- MIC [11]: 50 µM (≈ 21.8 µg/mL)
- MIC [28]: > 100 µM
- MIC [29]: > 100 µM
- pIC50 [5]: < 4.00
- MIC [24]: 12 µM (≈ 5.22 µg/mL)
- MIC [30]: 100 µM (≈ 43.5 µg/mL)
- MIC [8]: 12 µM (≈ 5.22 µg/mL)
- MIC [31]: > 100 µM
- MIC [32]: > 100 µM
- MIC [26]: 12 µM (≈ 5.22 µg/mL)
Compound: O=C1C=CC(=O)N1CCCCCn1c(C2CCNCC2)nc2cc(Cl)c(Cl)cc21
